PubChem BioAssay (NCI)
Values joined by “and” are separate entries in the source; they are usually repeats but may differ in a detail not shown here. Equal values may be shown once.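 Five concentrations, 48 hours, 96-well plates. GI50 marks 50% less growth. TGI: concentration producing complete growth inhibition.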

Key:
Experiment in all cases: growth of human tumour cells (NCI), 48 h
[1] = tested on: NCI-H522 lung
[2] = tested on: SNB-75 CNS
[3] = tested on: HCT-15 colon
[4] = tested on: SW-620 colon
[5] = tested on: NCI-H23 lung
[6] = tested on: HCT-116 colon
[7] = tested on: HT29 colon
[8] = tested on: OVCAR-5 ovarian
[9] = tested on: HS 578T breast
[10] = tested on: SN12C renal

SMILES	GI50 [1]	TGI [1]	GI50 [2]	TGI [2]	GI50 [3]	TGI [3]	GI50 [4]	TGI [4]	GI50 [5]	TGI [5]	GI50 [6]	TGI [6]	GI50 [7]	TGI [7]	GI50 [8]	TGI [8]	GI50 [9]	TGI [9]	GI50 [10]	TGI [10]
COc1cc(OC)c2c(c1Cl)O[C@]1(C2=O)C(OCc2ccccc2)=CC(=O)C[C@H]1C	0.694 µM	4.66 µM	0.936 µM	27.4 µM	0.487 µM	> 100 µM	0.641 µM	> 100 µM	1.02 µM	39.5 µM	0.46 µM	> 100 µM	0.534 µM	15.8 µM	1.83 µM	> 100 µM	3.17 µM	32.5 µM	0.833 µM	14 µM
NC(=S)N=Nc1c(O)[nH]c2ccccc12	159 µM	343 µM	91.7 µM and 174 µM	419 µM	139 µM	470 µM	474 µM	> 1000 µM	–	–	152 µM	297 µM	652 µM	> 1000 µM	–	–	195 µM	691 µM	154 µM	331 µM
O=C(N/N=C/c1cccc(O)c1)c1ccc(C(F)(F)F)nc1Nc1cccc(C(F)(F)F)c1	1.67 µM	6.72 µM	1.58 µM	6.03 µM	0.881 µM	10.1 µM	1.63 µM	5.77 µM	1.62 µM	5.07 µM	1.93 µM	5.69 µM	3.47 µM	11.2 µM	1.63 µM	5.67 µM	1.86 µM	5.86 µM	1.79 µM	6.34 µM
O=C(CN1CCN(c2ccccn2)CC1)Nc1ccc(Cl)cc1C(=O)c1ccccc1Cl	16.6 µM	> 100 µM	> 100 µM	> 100 µM	7.85 µM	> 100 µM	> 100 µM	> 100 µM	86.2 µM	> 100 µM	10 µM	> 100 µM	8.92 µM	> 100 µM	> 100 µM	> 100 µM	> 100 µM	> 100 µM	> 100 µM	> 100 µM
COC(=O)CCc1c(/C=C2\N=C(c3ccc[nH]3)C=C2OC)[nH]c(C)c1C(=O)OCc1ccccc1	0.653 µM	2.88 µM	0.315 µM	1.8 µM	0.177 µM	1.53 µM	0.304 µM	3.03 µM	0.795 µM	4.31 µM	0.122 µM	1.07 µM	0.138 µM	1.68 µM	0.684 µM	9.84 µM	0.491 µM	3.78 µM	0.442 µM	2.5 µM
CN1CCN(Cc2ccc(NC(=O)c3[nH]ncc3Nc3cc(OC4CCCC4)ncn3)cc2)CC1	2.15 µM	7.91 µM	3.53 µM	16.4 µM	1.24 µM	11 µM	2.66 µM	7.25 µM	3.07 µM	14.4 µM	0.755 µM	11 µM	2.53 µM	8.53 µM	2.79 µM	7.12 µM	2.2 µM	30 µM	3.37 µM	13.8 µM
